These results are taken from patent US20240277716A1, “Suppressive T Cell Populations and Methods of Cancer Immunotherapy” (La Jolla Institute for Immunology, priority 2021, published 2024).

Series [1] deals with circulating TREG cells. The experiment in a line: Phase II trial: circulating TREG cells. The conditions noted are these: in vivo. Further details: species or system human. The source says: Double blind, randomized clinical trial and sample collection. In order to explore the immunomodulatory effects of PI3Kδ inhibition in humans, the inventors conducted a multicenter, placebo-controlled phase II neoadjuvant trial with the PI3Kδi AMG319 in resectable HNSCC, www.clinicaltrialsregister.eu/ctr-search/trial/2014-004388-20/results). All patients have provided written informed consent for participation in the clinical trial. The inventors studied Human Papilloma Virus (HPV)-negative HNSCC, as this cancer type is more prevalent, and because patients with this cancer type have poorer outcomes when compared to HPV-positive HNSCC, likely due to overall lower tumor-infiltrating lymphocyte (TIL) infiltration^31-33. The clinical trial was sponsored by Cancer Research UK Center for Drug Development (CRUKD/15/004) and approved by the Southampton and South West Hampshire Research Ethics Board; the trial EudraCT number is 2014-004388-20. […] The sample size was calculated as follows: in a pilot cohort, the CD8 count in the biopsy taken at diagnosis, and in the resected tissue sample was quantified. […]

Series [2] deals with heavily-pretreated patients with either CLL or non-Hodgkin lymphoma. The conditions noted are these: cited from earlier work.
Series [3] deals with patients with resectable head and neck squamous cell carcinoma (HNSCC). It is filed as in vivo, human. The source says: PI3Kδ inhibition causes irAEs. To evaluate the potential for PI3Kδ inhibitors as immunotherapeutic agents in human solid cancers, the inventors administered the PI3Kδi AMG319 to treatment-naive patients with resectable head and neck squamous cell carcinoma (HNSCC) in a neoadjuvant, double-blind, placebo-controlled randomized phase II trial. The inventors measured target inhibition (pAKT levels in B cells and drug levels to verify drug administration. Thirty-three patients were randomized in a 2:1 ratio (AMG319:Placebo) to the trial and 30 patients received at least one dose of AMG319 or placebo. Fifteen patients received 400 mg daily of AMG319 (range of 7-24 days per patient). Unexpectedly, at the 400 mg dose, 9/15 patients experienced irAEs that lead to withdrawal of treatment. After a formal safety review, 6 additional patients were recruited and treated at a reduced dose of 300 mg per day. Again, 3/6 patients had irAEs that led to discontinuation of treatment. One patient experienced grade 4 colitis after completion of 24 daily doses of AMG319 and eventually required colectomy (FIG. 4A). The most prevalent irAEs were skin rashes (29%; 25% observed in the treatment group and 4% in placebo group), diarrhea (29%; 28% in observed treatment group and 1% in placebo group) and transaminitis (14% all in the treatment group), consistent with a treatment-mediated loss of TREG cells or TREG cell functionality in multiple tissues causing immunopathology.
Double blind, randomized clinical trial and sample collection. In order to explore the immunomodulatory effects of PI3Kδ inhibition in humans, the inventors conducted a multicenter, placebo-controlled phase II neoadjuvant trial with the PI3Kδi AMG319 in resectable HNSCC, www.clinicaltrialsregister.eu/ctr-search/trial/2014-004388-20/results). All patients have provided written informed consent for participation in the clinical trial. The inventors studied Human Papilloma Virus (HPV)-negative HNSCC, as this cancer type is more prevalent, and because patients with this cancer type have poorer outcomes when compared to HPV-positive HNSCC, likely due to overall lower tumor-infiltrating lymphocyte (TIL) infiltration^31-33. The clinical trial was sponsored by Cancer Research UK Center for Drug Development (CRUKD/15/004) and approved by the Southampton and South West Hampshire Research Ethics Board; the trial EudraCT number is 2014-004388-20. Detailed information about the trial design, randomization procedure, protocol amendments, recruitment data, patient characteristics and adverse events are deposited at www.clinicaltrialsregister.eu/ctr-search/trial/2014-004388-20/results #morelnformationSection and found in the CONSORT checklist. Patients were recruited after initial diagnosis and before definitive surgical treatment; drug treatment or placebo was given for up to 24 or 28 days respectively, prior to resection of tumor. […] The inventors reasoned that high-grade irAEs were unlikely to occur during the shorter treatment duration in the neoadjuvant setting, and therefore selected 400 mg/day as the starting dose. The intended time from initiating treatment with AMG319 or placebo to surgical resection of tumor was up to 4 weeks, with weekly blood draws. The full evaluation of radiological measurements has previously been reported at https://www.clinicaltrialsregister.eu/ctr-search/trial/2014-004388-20/results to the EU Clinical Trials Register in compliance with regulatory requirements. Primary endpoints were safety and assessment of CD8^+ immune infiltrates, secondary endpoints tumor responses and AMG319 pharmacokinetic evaluation (https://www.clinicaltrialsregister.eu/ctr-search/trial/2014-004388-20/results#endPointsSection). The sample size was calculated as follows: in a pilot cohort, the CD8 count in the biopsy taken at diagnosis, and in the resected tissue sample was quantified. […]

The subject of series [4] is tumor-infiltrating TREG cells and CD8+ T cells in HNSCC tumor tissue. The experiment in a line: Phase II trial: tumor RNA-seq, sorted CD8+ T cell RNA-seq and FOXP3 immunohistochemistry, pre- vs post-treatment. It is filed as in vivo, human. From the text:
Double blind, randomized clinical trial and sample collection. In order to explore the immunomodulatory effects of PI3Kδ inhibition in humans, the inventors conducted a multicenter, placebo-controlled phase II neoadjuvant trial with the PI3Kδi AMG319 in resectable HNSCC, www.clinicaltrialsregister.eu/ctr-search/trial/2014-004388-20/results). All patients have provided written informed consent for participation in the clinical trial. The inventors studied Human Papilloma Virus (HPV)-negative HNSCC, as this cancer type is more prevalent, and because patients with this cancer type have poorer outcomes when compared to HPV-positive HNSCC, likely due to overall lower tumor-infiltrating lymphocyte (TIL) infiltration^31-33. The clinical trial was sponsored by Cancer Research UK Center for Drug Development (CRUKD/15/004) and approved by the Southampton and South West Hampshire Research Ethics Board; the trial EudraCT number is 2014-004388-20. Detailed information about the trial design, randomization procedure, protocol amendments, recruitment data, patient characteristics and adverse events are deposited at www.clinicaltrialsregister.eu/ctr-search/trial/2014-004388-20/results #morelnformationSection and found in the CONSORT checklist. Patients were recruited after initial diagnosis and before definitive surgical treatment; drug treatment or placebo was given for up to 24 or 28 days respectively, prior to resection of tumor. […] The inventors reasoned that high-grade irAEs were unlikely to occur during the shorter treatment duration in the neoadjuvant setting, and therefore selected 400 mg/day as the starting dose. The intended time from initiating treatment with AMG319 or placebo to surgical resection of tumor was up to 4 weeks, with weekly blood draws. The full evaluation of radiological measurements has previously been reported at https://www.clinicaltrialsregister.eu/ctr-search/trial/2014-004388-20/results to the EU Clinical Trials Register in compliance with regulatory requirements. Primary endpoints were safety and assessment of CD8^+ immune infiltrates, secondary endpoints tumor responses and AMG319 pharmacokinetic evaluation (https://www.clinicaltrialsregister.eu/ctr-search/trial/2014-004388-20/results#endPointsSection). The sample size was calculated as follows: in a pilot cohort, the CD8 count in the biopsy taken at diagnosis, and in the resected tissue sample was quantified. The mean value at diagnosis was 25 cells/high power filed (hpf), and this remained almost the same in the resected sample (26 cells/hpf). […] To detect a standardized difference of 0.5 with 80% power and one-sided test of statistical significance of 20%, 36 patients were randomized to AMG319 and 18 to placebo (54 in total). Randomization was at the level of the individual patient, using block randomization with randomly varying block sizes. During the course of the clinical trial the randomization list was held by the unblinded Trial Statistician and within the IWRS. Patients and care providers were blinded to the treatment allocation, and all immunological evaluations were completed by a pathologist and researchers who were blinded to the patient allocation to treatment arms. […] Patients were eligible if they were >18 years, with histologically proven HNSCC for whom surgery was the primary treatment option, with laboratory results within specified ranges. […]

With `C[C@H](Nc1ncnc2[nH]cnc12)c1cc2ccc(F)cc2nc1-c1ccccn1` [AMG319], the “activated circulating TREG cells” value in series [1] is given as “significant increase”. Further, in series [2] (daily dosing with 400 mg), the nodal regression is given as > 50% and the “target inhibition (BCR-induced pAKT in ex vivo IgD-stimulated CLL samples)” value was “near-complete target inhibition”. Moreover, the maximally-tolerated dose result in series [2] (doses of up to 400 mg explored) was “without reaching a maximally-tolerated dose”. Also, the “mean half-life in plasma” value in series [2] (human plasma) was 3.8 to 6.6 h. The “occurrence of irAE at grade 3 or above (CTC)” value in series [2] (in vivo) is “after days 40 and 60”. Besides, the “difference in measured tumor volumes between the study arms” value in series [3] (23 evaluable patients, AMG319 vs placebo) is on record as “did not observe any significant differences”. The “patients with partial responses (PR)” value in series [3] (AMG319-treated, all also grade 3/4 irAEs) is reported as “Two”. Also, the “patients with complete pathological response” value in series [3] (AMG319-treated, also grade 3/4 irAEs) is reported as “one”. Also, in series [3] (human, in vivo), the “diarrhea observed in the treatment group” value is listed as 28%, the “median time to onset of irAEs” value is on record as 9 days, the “skin rashes observed in the treatment group” value is 25% and the transaminitis came out at 14%. The “patients with grade 4 colitis, eventually required colectomy” value in series [3] (in vivo) is reported as “One”. The “expression of IFNG, GZMB and PRF1 in sorted tumor-infiltrating CD8+ T cells” value in series [4] (post-treatment samples, bulk RNA-seq) was “higher expression”. Besides, the “differentially expressed genes, sorted CD8+ T cells” value in series [4] (post-treatment vs remaining samples) is listed as 455 genes. Further, the “FOXP3 transcript levels in the tumor samples” value in series [4] (pre- vs post-treatment) was “significant reduction”. For the same molecule, in series [4] (pre- vs post-treatment tumor samples), the “differentially-expressed genes, whole tumor RNA-seq” value stood at 93 DEGs. Moreover, the “intratumoral TREG cells (FOXP3+ cells, immunohistochemistry)” value in series [4] (short interval between stopping treatment and assessment) is recorded as “significantly reduced”.
